Reference: patent US20250186520A1, “ONCOLYTIC VIRUS COMPOSITIONS AND METHODS FOR THE TREATMENT OF CANCER” (priority 2020, published 2025)

How the values were obtained:
[1] = tested on: human macrophages co-cultured with GBM30 cells; experiment: Quantitative PCR of human macrophage cytokine genes; type: cell-based; conditions: vs IgG1 isotype control
Protocol: For evaluating the effect of Cmab-hCCL5 on mRNA levels of typical human macrophage cytokine genes, human macrophages and GBM30 cells were co-cultured at a ratio of 1:1 for 6 hours with or without 5 μg/ml Cmab-hCCL5. The macrophages were stained with anti-human CD45 antibody and sorted using an Aria Fusion flow cytometer (BD Biosciences). The total RNA was extracted from the sorted macrophages for measuring the mRNA levels of human IL1B, IL6, IL12A, and NOS2 genes with their corresponding primers. 18s rRNA was used as an internal control.

GBM30 cells = experiment: Flow cytometry-based phagocytosis (ADCP) assay, human macrophages; type: cell-based; conditions: purified protein; vs IgG1 isotype control or vehicle
Protocol: For the phagocytosis assay of primary human macrophages, GBM30 cells stained with CFSE (Thermo Fisher, cat #C34554) were used as target cells. Human macrophages and target cells were co-cultured at a ratio of 1:2 for 6 hours with 5 μg/ml or 10 μg/ml of the Cmab-hCCL5 fusion protein or IgG1 isotype control in a humidified, 5% CO2 incubator at 37° C. in ultra-low-attachment 96-well U-bottom plates (Corning) in serum-free 1640 media (Life Technologies). The co-cultured cells were harvested by centrifuging at 400×g for 5 min at 4° C. and stained with an anti-human CD45 antibody (Biolegend, cat #368516) to identify macrophages. All flow cytometry data were collected using a Fortessa X20 flow cytometer (BD Biosciences). Phagocytosis was measured as the number of CD45^+CFSE^+ macrophages, quantified as a percentage of the total CD45^+ cells.

Gli36ΔEGFR cells = experiment: NK cell cytotoxicity (51Cr release) against TMZ-pretreated cells; type: cell-based, human
Protocol: TMZ, which is an imidazotetrazine that is converted to a compound capable of alkylating DNA, interferes with DNA replication and leading to cytotoxicity in proliferating cells, and has been in clinical trials for treating GBM. To detect whether OV-Cmab-CCL5 enhanced TMZ function for treating GBM, the combination therapy with OV-Cmab-CCL5 and TMZ in vivo and in vitro was performed. Gli36ΔEGFR cells were treated with 1 μM TMZ overnight, and the pretreated cells were ^51Cr-labeled and used as target cells. These cells were then incubated with 5 μg/ml Cmab-hCCL5 or vehicle for 30 min. The effector NK cells and target cells were then co-cultured at the ratios of 40:1, 20:1, and 10:1 for 4 hours and assayed for cytotoxicity. […] This function was also detected as induced by the supernatants from OV-Cmab-hCCL5-infected Gli36ΔEGFR cells. Consistent data were collected.

EGFR^− A2780 cells = experiment: EGFR binding assay by flow cytometry on EGFR-negative cells; set-up: species or system human; conditions: protein purified from CHO cells; vs IgG1 isotype control
Protocol: (§1) U251T2, U87ΔEGFR, and A4780 cells were pre-blocked with 2% BSA and incubated with 1, 5, or 10 μg/ml purified Cmab-hCCL5 or 1, 5, or 10 μg/ml human IgG1 isotype control for 30 min. Murine CT2A-hEGFR cells were pre-blocked with 2% BSA and then incubated with 1, 5, or 10 μg/ml purified Cmab-mCCL5 or 1, 5, or 10 μg/ml human IgG1 isotype control for 30 min. After incubation, all cells were washed twice, and human cell lines were stained with APC-conjugated anti-human Fc (Jackson ImmunoResearch, cat #209-605-098) or APC-conjugated anti-human CCL5 (Biolegend, cat #515506, 149103) antibodies, whereas the murine CT2A-hEGFR cells were stained with APC-conjugated anti-human Fc or PE-conjugated anti-mouse CCL5 antibodies, for 20 min. The stained cells were analyzed using a Fortessa X20 flow cytometer (BD Biosciences).

[2] = tested on: human NK cells co-cultured with GBM30 cells; experiment: NK cell activation assay (CD69, granzyme B by flow cytometry); type: cell-based; conditions: purified protein
Protocol: (§2) NK cell cytotoxicity was evaluated as previously described (13,64,65). Briefly, U251T2, GBM30, Gli36ΔEGFR, and CT2A-hEGFR cells were used as target cells. The target cells were labeled with ^51Cr for 1 h, followed by incubation with 5 μg/ml or 10 μg/ml of the Cmab-hCCL5 fusion protein or IgG1 isotype control for 30 min. The labeled target cells preincubated with the Cmab-hCCL5 fusion protein or IgG1 were co-cultured with isolated human primary NK cells at different effector:target ratios at 37° C. for 4 h. Release of ^51Cr was measured as counts per minute (cpm) with a MicroBeta(2) microplate radiometric counter (Perkin Elmer, Waltham, MA). […] The cell lysis percentages were calculated using the standard formula: 100×(cpm experimental release−cpm spontaneous release)/(cpm maximal release−cpm spontaneous release). […] The expression of CD69 and granzyme B, NK cell activation markers, were measured after 6-hour co-culture of NK cells and GBM30 cells with 5 μg/ml or 10 μg/ml of Cmab-hCCL5 at a ratio of 1:1 with a flow cytometer after the cells were stained with the anti-CD56 (BD, cat #557919) and anti-CD69 (BD, cat #562883) or anti-granzyme B (BD, cat #563388) antibodies. Following similar procedures, mouse CD69 was measured by an anti-CD69 (BD, cat #564683) antibody, and NK cells were marked by an anti-NKp46 (Biolegend, cat #137618) antibody.

[3] = tested on: EGFR (wtEGFR U251T2 and EGFRvIII U87ΔEGFR GBM cells); experiment: EGFR binding assay and CCL5 expression assay by flow cytometry (anti-human Fc / anti-human CCL5); conditions: protein purified from CHO cells
Protocol: as §1

[4] = target: T1, EGFR (wtEGFR U251T2 and EGFRvIII U87ΔEGFR GBM cells) (Homo sapiens, UniProt P00533); experiment: as above
T1 construct: U251T2 GBM cells, which express wild type EGFR (wtEGFR), U87ΔEGFR GBM cells, which express EGFRvIII; endogenous in cells; host or cells: U251T2 (wtEGFR) and U87ΔEGFR (EGFRvIII) human GBM cells
Protocol: as §1

[5] = tested on: U251T2 (wtEGFR), GBM30, Gli36ΔEGFR (EGFRvIII) GBM cells; experiment: NK cell ADCC, 51Cr release assay, EGFR+ targets; type: cell-based, human; conditions: purified protein; wtEGFR and EGFRvIII tumor cells; vs IgG1 isotype control
Protocol: as §2

[6] = tested on: human NK cells, macrophages, CD4^+ T cells, and CD8^+ T cells; experiment: Transwell cell migration assay, human immune cells; type: cell-based; conditions: protein purified from CHO cells; vs IgG1 isotype control
Protocol: The migration capability of NK cells, T cells, and macrophages was determined using transwell chambers (Corning). Serum-starved NK cells, T cells or macrophages (10^6/well) were seeded to an upper chamber. Recombinant human (rh) CCL5, recombinant mouse (rm) CCL5, purified Cmab-hCCL5 or Cmab-mCCL5, or the supernatant containing Cmab-hCCL5 or Cmab-mCCL5 secreted from OV-Cmab-hCCL5- or OV-Cmab-mCCL5-infected U251T2 GBM cells was added to the lower chamber. The chambers were incubated at 37° C. in 5% CO2 for 12 h. Cells that migrated to the lower face of the porous membrane in the lower chamber were counted. For the T cells and NK cells, the pore size of the transwell membrane used in this assay was 3 μm as previously described (61,62). For the macrophages, the pore size of the transwell membrane used in this assay was […] as previously described (63).

| Molecule | cytokine expression in human macrophages (real-time RT-PCR) [1] | ADCP against GBM30 cells by human macrophages (GBM30 cells) | NK cell cytotoxicity (Gli36ΔEGFR cells; 1 μM TMZ pre-treatment plus 5 μg/ml Cmab-hCCL5, vs either treatment alone) | binding to EGFR^− A2780 cells (anti-human Fc antibody) (EGFR^− A2780 cells) | CD69 expression on NK cells ([2]; 6 hours, vs IgG1 isotype control or GBM30 cells alone) | granzyme B expression in NK cells ([2]; relative to controls) | CCL5 on cell surface (anti-CCL5 antibody) ([3]; EGFR^+ cells) | binding to tumor cells (anti-human Fc antibody) ([3]; U251T2 (wtEGFR) and U87ΔEGFR (EGFRvIII) cells) | secretion of cetuximab or CCL5, comparison of Cmab-CCL5 and reverse-order CCL5-Cmab ([4]; FIGS. 14C, 14D: flow cytometry on U251T2 with anti-Fc / anti-hCCL5) | binding to surface-expressed EGFR (anti-Fc and anti-CCL5 antibodies) ([4]; protein produced by OV-Cmab-hCCL5-infected U251T2 GBM cells) | NK cell ADCC [5] | migration of human NK cells, macrophages, CD4^+ and CD8^+ T cells [6] | NK cell cytotoxicity (Gli36ΔEGFR cells; 1 μM TMZ overnight pre-treatment alone) |
| --- | --- | --- | --- | --- | --- | --- | --- | --- | --- | --- | --- | --- | --- |
| Cmab-hCCL5: bispecific knob-into-hole human IgG1 Fc fusion protein: cetuximab scFv arm and human CCL5 arm | significantly increased IL-1B, IL-6, IL-12, and NOS2 expression | induced a significantly higher level of ADCP | significantly higher degree of NK cell cytotoxicity | indistinguishable from that of IgG1 isotype control | significantly increased the expression of CD69 | increased granzyme B expression | detected CCL5 on EGFR^+ cell surfaces | selectively bound to tumor cells expressing wtEGFR or EGFRvIII | no difference | confirmed to bind to surface-expressed EGFR | significantly induced NK cell ADCC | dose-dependent increase in the migration |  |
| Cn1nnc2c(C(N)=O)ncn2c1=O [TMZ, Temozolomide, reference compound] |  |  |  |  |  |  |  |  |  |  |  |  | enhanced NK cell cytotoxicity |
